biological target: T1, active p38 alpha enzyme (Upstate Biotechnology) (Homo sapiens, UniProt Q16539); assay: p38α biochemical assay (ATP turnover, luminescent detection, Cambrex PKlight); settings: p38α biochemical assay, Table 1 Biological Activity
T1 construct: purchased Upstate Biotechnology
Method in brief: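 Active p38α phosphorylates MapkapK2 whole protein with 1.4 uM final ATP, 2 h at 30C, in Tris/MOPS buffer with MgCl2, CaCl2, EGTA, EDTA, glycerol, β-mercaptoethanol and 1 mg/ml BSA. Compounds pin-delivered from DMSO; total ATP turnover read by luminescence after PKlight addition.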

T1 sequence (Q16539 whole entry): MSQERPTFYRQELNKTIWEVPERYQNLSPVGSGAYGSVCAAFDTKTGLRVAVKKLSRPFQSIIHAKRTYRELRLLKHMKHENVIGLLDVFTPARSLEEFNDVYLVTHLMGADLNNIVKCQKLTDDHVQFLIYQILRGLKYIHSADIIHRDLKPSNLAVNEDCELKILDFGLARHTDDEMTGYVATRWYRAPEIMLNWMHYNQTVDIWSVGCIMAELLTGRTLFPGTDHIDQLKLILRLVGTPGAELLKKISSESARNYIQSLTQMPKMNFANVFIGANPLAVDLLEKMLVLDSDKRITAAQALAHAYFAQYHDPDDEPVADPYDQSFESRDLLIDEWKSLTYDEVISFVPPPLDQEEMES

Compound	IC50 [µM]
CC(C)NC(=O)c1csc(-c2c(-c3ccc(F)cc3)noc2CNC(=O)CCc2ccccc2Br)n1 [Example 784]	> 1
COc1ccc(Br)c(C(=O)NCc2onc(-c3ccc(F)cc3)c2-c2nc(C(=O)NC(C)C)cs2)c1 [Example 791]	> 1
CC(C)NC(=O)c1csc(-c2oc(CNC(=O)c3c(F)c(F)c(F)c(F)c3F)nc2-c2ccc(F)cc2)n1 [Example 282]	≤ 1
CC(C)NC(=O)c1csc(-c2oc(CNC(=O)c3ccc(O)cc3O)nc2-c2ccc(F)cc2)n1 [Example 148]	≤ 1
Cc1ccc(C(=O)NCc2onc(-c3ccc(F)cc3)c2-c2nc(C(=O)NC(C)C)cs2)c(C)c1 [Example 609]	> 1
CCOC(=O)CC(=O)N1CCN(Cc2nc(-c3ccc(F)cc3)c(-c3nc(C(=O)NC(C)C)cs3)o2)CC1 [Example 357]	≤ 1
CC(C)NC(=O)c1csc(-c2oc(CN3CCN(C(=O)c4cscn4)CC3)nc2-c2ccc(F)cc2)n1 [Example 356]	≤ 1
CC(C)NC(=O)c1csc(-c2c(-c3ccc(F)cc3)noc2CNC(=O)Cc2ccc(O)c(F)c2)n1 [Example 666]	> 1
CC(C)NC(=O)c1csc(-c2oc(CN3CCN(C(=O)c4cc5ccccc5cc4O)CC3)nc2-c2ccc(F)cc2)n1 [Example 481]	> 1
CC(C)NC(=O)c1csc(-c2oc(CN3CCNCC3)nc2-c2ccc(F)cc2)n1 [Example 572]	> 1
CC(C)NC(=O)c1csc(-c2oc(CNC(=O)Cc3ccc(Br)cc3)nc2-c2ccc(F)cc2)n1 [Example 294]	> 1
CC(C)NC(=O)c1csc(-c2oc(CN3CCN(C(=O)CNC(=O)OC(C)(C)C)CC3)nc2-c2ccc(F)cc2)n1 [Example 438]	> 1
CC(C)NC(=O)c1csc(-c2oc(CNC(=O)c3cc([N+](=O)[O-])ccc3F)nc2-c2ccc(F)cc2)n1 [Example 235]	> 1
CC(C)NC(=O)c1csc(-c2oc(CNC(=O)C3CN(C(=O)OC(C)(C)C)CCN3)nc2-c2ccc(F)cc2)n1 (centres unmarked) [Example 315]	≤ 1
CC(C)NC(=O)c1csc(-c2oc(CN3CCN(C(=O)c4cc5ccccc5s4)CC3)nc2-c2ccc(F)cc2)n1 [Example 444]	> 1
CCOc1ccc2ccccc2c1C(=O)N1CCN(Cc2nc(-c3ccc(F)cc3)c(-c3nc(C(=O)NC(C)C)cs3)o2)CC1 [Example 534]	≤ 1
CC(CC(=O)N1CCN(Cc2nc(-c3ccc(F)cc3)c(-c3nc(C(=O)NC(C)C)cs3)o2)CC1)CC(C)(C)C (centres unmarked) [Example 399]	≤ 1
CCC(C)NC(=O)n1ccc(-c2c(-c3ccc(Cl)cc3)noc2C)n1 (centres unmarked) [Example 4, 3-|3-(4-Chloro-phenyl)-5-methyl-isoxazol-4-yl|-pyrazole-1-carboxylic acid sec-butylamide]	≤ 1
CC(=O)NC(Cc1ccc(O)cc1)C(=O)NCc1nc(-c2ccc(F)cc2)c(-c2nc(C(=O)NC(C)C)cs2)o1 (centres unmarked) [Example 305]	≤ 1

same assay, conditions: p38α kinase; Table 1 Biological Activity

Compound	IC50 [µM]
CC(C)NC(=O)c1csc(-c2c(-c3ccc(F)cc3)n[nH]c2C2CCN(C(=O)c3ccccc3Cc3ccccc3)CC2)n1 [Example 1001]	> 1
Cc1nc(-c2ccc(F)cc2)c(-c2nc(C(=O)Nc3ccccc3-c3ccccc3)cs2)s1 [Example 2010]	≤ 1
CC(C)NC(=O)c1csc(-c2c(-c3ccc(F)cc3)n[nH]c2C2CCN(C(=O)c3ccccc3Cl)CC2)n1 [Example 865]	> 1
CCCCN(Cc1ccccc1)Cc1nc(-c2ccc(F)cc2)c(-c2nc(C(=O)NC(C)C)cs2)o1 [Example 1243]	> 1
NCCNC(=O)c1csc(-c2c(-c3ccc(F)cc3)n[nH]c2C2CCNCC2)n1 [Example 2035]	> 1
Cc1ccc(C(=O)N2CCC(c3[nH]nc(-c4ccc(F)cc4)c3-c3nc(C(=O)NC(C)C)cs3)CC2)cc1F [Example 863]	> 1
Cc1nc(-c2ccc(F)cc2)c(-c2nc(C(=O)Nc3ncccc3OCc3ccccc3)cs2)s1 [Example 2021]	> 1
O=C(NCCCc1ccccc1)c1csc(-c2c(-c3ccc(F)cc3)n[nH]c2C2CCNCC2)n1 [Example 2096]	> 1
O=C(NCCc1ccc(O)cc1)c1csc(-c2c(-c3ccc(F)cc3)n[nH]c2C2CCNCC2)n1 [Example 2099]	> 1
Cc1nc(-c2ccc(F)cc2)c(-c2nc(C(=O)NC(C)C(C)C)cs2)s1 (centres unmarked) [Example 1724]	> 1
CC(=O)N[C@H]1CCN(Cc2nc(-c3ccc(F)cc3)c(-c3nc(C(=O)NC(C)C)cs3)o2)C1 [Example 1220]	> 1
Cc1ccc(NCc2nc(-c3ccc(F)cc3)c(-c3nc(C(=O)NC(C)C)cs3)o2)cc1C [Example 1318]	> 1
O=C(NCCN1CCCCC1)c1csc(-c2c(-c3ccc(F)cc3)n[nH]c2C2CCNCC2)n1 [Example 2085]	> 1
CC(C)NC(=O)c1csc(-c2c(-c3ccc(F)cc3)noc2CN2CCN(c3ccc(Cl)c(Cl)c3)CC2)n1 [Example 1624]	> 1
CC(C)NC(=O)c1csc(-c2oc(CNC3CONC3=O)nc2-c2ccc(F)cc2)n1 (centres unmarked) [Example 1081]	> 1
CC(C)NC(=O)c1csc(-c2oc(CNc3ccccc3C(C)(C)C)nc2-c2ccc(F)cc2)n1 [Example 1348]	> 1
Cc1nc(-c2ccc(F)cc2)c(-c2nc(C(=O)NCCCN(C)c3ccccc3)cs2)s1 [Example 1811]	≤ 1
Cc1ccc([C@@H](C)NC(=O)c2csc(-c3sc(C)nc3-c3ccc(F)cc3)n2)cc1 [Example 1771]	> 1
CC(C)NC(=O)c1csc(-c2oc(CN(CCO)[C@H](C)c3ccccc3)nc2-c2ccc(F)cc2)n1 [Example 1244]	> 1
CC(C)NC(=O)c1csc(-c2oc(CNc3cc(F)cc(F)c3)nc2-c2ccc(F)cc2)n1 [Example 1330]	> 1
CC(C)NC(=O)c1csc(-c2c(-c3ccc(F)cc3)noc2CNCCOc2ccccc2)n1 [Example 1454]	> 1
COc1ccc(NC(=O)c2csc(-c3c(-c4ccc(F)cc4)n[nH]c3C3CCNCC3)n2)cc1OC [Example 2125]	> 1
CC(C)NC(=O)c1csc(-c2c(-c3ccc(F)cc3)noc2CNCCc2ccccc2)n1 [Example 1430]	> 1
CC(C)NC(=O)c1csc(-c2c(-c3ccc(F)cc3)n[nH]c2C2CCN(C(=O)C3CCc4ccccc4C3)CC2)n1 (centres unmarked) [Example 918]	> 1
CC(=O)c1ccc(NCc2nc(-c3ccc(F)cc3)c(-c3nc(C(=O)NC(C)C)cs3)o2)cc1 [Example 1336]	> 1

Compound	IC50 [µM]
CCCCN(C)Cc1onc(-c2ccc(F)cc2)c1-c1nc(C(=O)NC(C)C)cs1 [Example 1519]	> 1
Cc1nc(-c2ccc(F)cc2)c(-c2nc(C(=O)NC3CCCc4ccccc43)cs2)s1 (centres unmarked) [Example 1996]	> 1
CC(C)NC(=O)c1csc(-c2c(-c3ccc(F)cc3)noc2CN2CCC(NC(=O)OC(C)(C)C)C2)n1 (centres unmarked) [Example 1585]	> 1
CC(C)NC(=O)c1csc(-c2c(-c3ccc(F)cc3)noc2CN(C)CC(O)c2ccccc2)n1 (centres unmarked) [Example 1560]	> 1
CC(C)NC(=O)c1csc(-c2c(-c3ccc(F)cc3)noc2CN(C)C2CCCCC2)n1 [Example 1532]	> 1
COc1cccc(N2CCN(Cc3nc(-c4ccc(F)cc4)c(-c4nc(C(=O)NC(C)C)cs4)o3)CC2)c1 [Example 1271]	> 1
CCN(CC)CCNC(=O)c1csc(-c2sc(C)nc2-c2ccc(F)cc2)n1 [Example 1750]	≤ 1
Cc1ccc(NCc2onc(-c3ccc(F)cc3)c2-c2nc(C(=O)NC(C)C)cs2)cc1Cl [Example 1668]	> 1
O=C(NCc1ccc(Cl)c(Cl)c1)c1csc(-c2c(-c3ccc(F)cc3)n[nH]c2C2CCNCC2)n1 [Example 2145]	> 1
CC(C)NC(=O)c1csc(-c2c(-c3ccc(F)cc3)ncn2C2CC(C)(C)NC(C)(C)C2)n1 [Example 2189, 2-|5-(4-Fluoro-phenyl)-3-(2,2,6,6-tetramethyl-piperidin-4-yl)-3H-imidazol-4-yl|-thiazole-4-carboxylic acid isopropylamide]	> 1
CC(C)NC(=O)c1csc(-c2oc(CN3CCN(c4ccc(C(F)(F)F)cc4)CC3)nc2-c2ccc(F)cc2)n1 [Example 1296]	> 1
CC(C)NC(=O)c1csc(-c2oc(CN3C(C)CCCC3C)nc2-c2ccc(F)cc2)n1 (centres unmarked) [Example 1208]	> 1
CC(C)CC(C)NC(=O)c1csc(-c2c(-c3ccc(F)cc3)n[nH]c2C2CCNCC2)n1 (centres unmarked) [Example 2058]	> 1
Cc1nc(-c2ccc(F)cc2)c(-c2nc(C(=O)N3CCCCC3CCO)cs2)s1 (centres unmarked) [Example 1873]	> 1
Cc1nc(-c2ccc(F)cc2)c(-c2nc(C(=O)NCc3ccc(Cl)cc3)cs2)s1 [Example 1787]	≤ 1
CC(C)NC(=O)c1csc(-c2c(-c3ccc(F)cc3)noc2CNc2ccc(OC(F)(F)F)cc2)n1 [Example 1686]	> 1
Cc1cc(C)cc(NCc2nc(-c3ccc(F)cc3)c(-c3nc(C(=O)NC(C)C)cs3)o2)c1 [Example 1323]	> 1
CC(C)NC(=O)c1csc(-c2oc(CNCCc3ccc(O)cc3)nc2-c2ccc(F)cc2)n1 [Example 1122]	≤ 1
CC(C)NC(=O)c1csc(-c2c(-c3ccc(F)cc3)n[nH]c2C2CCN(C(=O)C(C)c3ccc(O)cc3)CC2)n1 (centres unmarked) [Example 897]	> 1
Cc1ccc(S(=O)(=O)NCCNCc2nc(-c3ccc(F)cc3)c(-c3nc(C(=O)NC(C)C)cs3)o2)cc1 [Example 1180]	≤ 1
CC(C)NC(=O)c1csc(-c2oc(CN3CC(C)OC(C)C3)nc2-c2ccc(F)cc2)n1 (centres unmarked) [Example 1213]	> 1
CC(C)NC(=O)c1csc(-c2oc(CNc3ccc4ncsc4c3)nc2-c2ccc(F)cc2)n1 [Example 1350]	> 1
CC(C)NC(=O)c1csc(-c2c(-c3ccc(F)cc3)n[nH]c2C2CCN(C(=O)c3c(Cl)cc(Cl)cc3Cl)CC2)n1 [Example 1020]	> 1
CC(C)NC(=O)c1csc(-c2c(-c3ccc(F)cc3)n[nH]c2C2CCN(C(=O)c3ccc(-c4ccc(O)cc4)cc3)CC2)n1 [Example 1005]	> 1

From US20060252807A1, “Novel ortho-terphenyl inhibitors of p38 kinase and methods of treating inflammatory disorders” (Kalypsys, Inc., priority 2005, published 2006)
